# Measurements as given in PubChem BioAssay (NCI).
#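 The compound was tested at five concentrations on cells cultured in 96-well plates, with a 48-hour exposure period. TGI marks complete inhibition of growth.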
# Test system: RPMI-8226 leukemia
# Assay: NCI anticancer screen, dose series, 48 h
row,Structure (SMILES),TGI [µM]
1,CC(C)(Cl)C(Br)CCC(C)(Br)C(Br)CBr (stereo not drawn),40.1
2,CCOC(=O)C(/C=N\C(=S)Nc1c(CC)cccc1C(C)(C)C)=C(/O)c1ccccc1,> 100
3,O=CN(CCN1CCCC1)C1CCc2cc(Cl)c(Cl)cc2C1 (stereo not drawn),45.3
4,OC1c2ccccc2CCC1C(O)(C(F)(F)F)C(F)(F)F (stereo not drawn),> 100

# Test system: SK-MEL-28 melanoma
# Assay: NCI anticancer screen, dose series, 48 h
row,Structure (SMILES),TGI [µM]
1,CCOCCOC(=O)C1CCC(=O)N1CN(C(C)=O)c1cc(OC)ccc1OC (stereo not drawn),> 100
2,CC(C)(Cl)C(Br)CCC(C)(Br)C(Br)CBr (stereo not drawn),33.6
3,CCOC(=O)C(/C=N\C(=S)Nc1c(CC)cccc1C(C)(C)C)=C(/O)c1ccccc1,> 100
4,OC1c2ccccc2CCC1C(O)(C(F)(F)F)C(F)(F)F (stereo not drawn),> 100

# Test system: NCI/ADR-RES ovarian
# Assay: NCI anticancer screen, dose series, 48 h
row,Structure (SMILES),TGI [µM]
1,CCOCCOC(=O)C1CCC(=O)N1CN(C(C)=O)c1cc(OC)ccc1OC (stereo not drawn),> 100
2,CC(C)(Cl)C(Br)CCC(C)(Br)C(Br)CBr (stereo not drawn),31.6
3,CCOC(=O)C(/C=N\C(=S)Nc1c(CC)cccc1C(C)(C)C)=C(/O)c1ccccc1,> 100
4,O=CN(CCN1CCCC1)C1CCc2cc(Cl)c(Cl)cc2C1 (stereo not drawn),61.2
5,OC1c2ccccc2CCC1C(O)(C(F)(F)F)C(F)(F)F (stereo not drawn),> 100

# Test system: K-562 leukemia
# Assay: NCI anticancer screen, dose series, 48 h
row,Structure (SMILES),TGI [µM]
1,CCOCCOC(=O)C1CCC(=O)N1CN(C(C)=O)c1cc(OC)ccc1OC (stereo not drawn),> 100
2,CC(C)(Cl)C(Br)CCC(C)(Br)C(Br)CBr (stereo not drawn),> 100
3,CCOC(=O)C(/C=N\C(=S)Nc1c(CC)cccc1C(C)(C)C)=C(/O)c1ccccc1,> 100
4,O=CN(CCN1CCCC1)C1CCc2cc(Cl)c(Cl)cc2C1 (stereo not drawn),51.6
5,OC1c2ccccc2CCC1C(O)(C(F)(F)F)C(F)(F)F (stereo not drawn),> 100

# Test system: HOP-62 NSCLC
# Assay: NCI anticancer screen, dose series, 48 h
row,Structure (SMILES),TGI [µM]
1,CCOCCOC(=O)C1CCC(=O)N1CN(C(C)=O)c1cc(OC)ccc1OC (stereo not drawn),> 100
2,CC(C)(Cl)C(Br)CCC(C)(Br)C(Br)CBr (stereo not drawn),32.5
3,CCOC(=O)C(/C=N\C(=S)Nc1c(CC)cccc1C(C)(C)C)=C(/O)c1ccccc1,> 100
4,O=CN(CCN1CCCC1)C1CCc2cc(Cl)c(Cl)cc2C1 (stereo not drawn),34.9
5,OC1c2ccccc2CCC1C(O)(C(F)(F)F)C(F)(F)F (stereo not drawn),> 100

# Test system: OVCAR-8 ovarian
# Assay: NCI anticancer screen, dose series, 48 h
row,Structure (SMILES),TGI [µM]
1,CCOCCOC(=O)C1CCC(=O)N1CN(C(C)=O)c1cc(OC)ccc1OC (stereo not drawn),> 100
2,CC(C)(Cl)C(Br)CCC(C)(Br)C(Br)CBr (stereo not drawn),29.7
3,CCOC(=O)C(/C=N\C(=S)Nc1c(CC)cccc1C(C)(C)C)=C(/O)c1ccccc1,> 100
4,O=CN(CCN1CCCC1)C1CCc2cc(Cl)c(Cl)cc2C1 (stereo not drawn),48.6
5,OC1c2ccccc2CCC1C(O)(C(F)(F)F)C(F)(F)F (stereo not drawn),> 100

# Test system: COLO 205 colon
# Assay: NCI anticancer screen, dose series, 48 h
row,Structure (SMILES),TGI [µM]
1,CCOCCOC(=O)C1CCC(=O)N1CN(C(C)=O)c1cc(OC)ccc1OC (stereo not drawn),> 100
2,CC(C)(Cl)C(Br)CCC(C)(Br)C(Br)CBr (stereo not drawn),31
3,CCOC(=O)C(/C=N\C(=S)Nc1c(CC)cccc1C(C)(C)C)=C(/O)c1ccccc1,> 100
4,O=CN(CCN1CCCC1)C1CCc2cc(Cl)c(Cl)cc2C1 (stereo not drawn),37.8
5,OC1c2ccccc2CCC1C(O)(C(F)(F)F)C(F)(F)F (stereo not drawn),> 100

# Test system: CAKI-1 renal
# Assay: NCI anticancer screen, dose series, 48 h
row,Structure (SMILES),TGI [µM]
1,CCOCCOC(=O)C1CCC(=O)N1CN(C(C)=O)c1cc(OC)ccc1OC (stereo not drawn),> 100
2,CCOC(=O)C(/C=N\C(=S)Nc1c(CC)cccc1C(C)(C)C)=C(/O)c1ccccc1,> 100
3,O=CN(CCN1CCCC1)C1CCc2cc(Cl)c(Cl)cc2C1 (stereo not drawn),53.8
4,OC1c2ccccc2CCC1C(O)(C(F)(F)F)C(F)(F)F (stereo not drawn),> 100

# Test system: HS 578T breast
# Assay: NCI anticancer screen, dose series, 48 h
row,Structure (SMILES),TGI [µM]
1,CCOCCOC(=O)C1CCC(=O)N1CN(C(C)=O)c1cc(OC)ccc1OC (stereo not drawn),> 100
2,CC(C)(Cl)C(Br)CCC(C)(Br)C(Br)CBr (stereo not drawn),46.5
3,CCOC(=O)C(/C=N\C(=S)Nc1c(CC)cccc1C(C)(C)C)=C(/O)c1ccccc1,87.5
4,O=CN(CCN1CCCC1)C1CCc2cc(Cl)c(Cl)cc2C1 (stereo not drawn),42.3
5,OC1c2ccccc2CCC1C(O)(C(F)(F)F)C(F)(F)F (stereo not drawn),> 100

# Test system: ACHN renal
# Assay: NCI anticancer screen, dose series, 48 h
row,Structure (SMILES),TGI [µM]
1,CCOCCOC(=O)C1CCC(=O)N1CN(C(C)=O)c1cc(OC)ccc1OC (stereo not drawn),> 100
2,CC(C)(Cl)C(Br)CCC(C)(Br)C(Br)CBr (stereo not drawn),31.9
3,CCOC(=O)C(/C=N\C(=S)Nc1c(CC)cccc1C(C)(C)C)=C(/O)c1ccccc1,> 100
4,OC1c2ccccc2CCC1C(O)(C(F)(F)F)C(F)(F)F (stereo not drawn),> 100

# Test system: NCI-H23 lung
# Assay: NCI anticancer screen, dose series, 48 h
row,Structure (SMILES),TGI [µM]
1,CCOCCOC(=O)C1CCC(=O)N1CN(C(C)=O)c1cc(OC)ccc1OC (stereo not drawn),> 100
2,CC(C)(Cl)C(Br)CCC(C)(Br)C(Br)CBr (stereo not drawn),38.6
3,CCOC(=O)C(/C=N\C(=S)Nc1c(CC)cccc1C(C)(C)C)=C(/O)c1ccccc1,> 100
4,O=CN(CCN1CCCC1)C1CCc2cc(Cl)c(Cl)cc2C1 (stereo not drawn),60
5,OC1c2ccccc2CCC1C(O)(C(F)(F)F)C(F)(F)F (stereo not drawn),> 100

# Test system: SNB-75 CNS
# Assay: NCI anticancer screen, dose series, 48 h
row,Structure (SMILES),TGI [µM]
1,CCOCCOC(=O)C1CCC(=O)N1CN(C(C)=O)c1cc(OC)ccc1OC (stereo not drawn),> 100
2,CCOC(=O)C(/C=N\C(=S)Nc1c(CC)cccc1C(C)(C)C)=C(/O)c1ccccc1,> 100
3,OC1c2ccccc2CCC1C(O)(C(F)(F)F)C(F)(F)F (stereo not drawn),> 100

# Test system: MOLT-4 leukemia
# Assay: NCI anticancer screen, dose series, 48 h
row,Structure (SMILES),TGI [µM]
1,CCOCCOC(=O)C1CCC(=O)N1CN(C(C)=O)c1cc(OC)ccc1OC (stereo not drawn),> 100
2,CC(C)(Cl)C(Br)CCC(C)(Br)C(Br)CBr (stereo not drawn),53.4
3,CCOC(=O)C(/C=N\C(=S)Nc1c(CC)cccc1C(C)(C)C)=C(/O)c1ccccc1,> 100
4,O=CN(CCN1CCCC1)C1CCc2cc(Cl)c(Cl)cc2C1 (stereo not drawn),55
5,OC1c2ccccc2CCC1C(O)(C(F)(F)F)C(F)(F)F (stereo not drawn),> 100

# Test system: NCI-H226 lung
# Assay: NCI anticancer screen, dose series, 48 h
row,Structure (SMILES),TGI [µM]
1,CCOCCOC(=O)C1CCC(=O)N1CN(C(C)=O)c1cc(OC)ccc1OC (stereo not drawn),> 100
2,CC(C)(Cl)C(Br)CCC(C)(Br)C(Br)CBr (stereo not drawn),39.3
3,CCOC(=O)C(/C=N\C(=S)Nc1c(CC)cccc1C(C)(C)C)=C(/O)c1ccccc1,> 100
4,OC1c2ccccc2CCC1C(O)(C(F)(F)F)C(F)(F)F (stereo not drawn),> 100

# Test system: 786-0 renal
# Assay: NCI anticancer screen, dose series, 48 h
row,Structure (SMILES),TGI [µM]
1,CCOCCOC(=O)C1CCC(=O)N1CN(C(C)=O)c1cc(OC)ccc1OC (stereo not drawn),> 100
2,CC(C)(Cl)C(Br)CCC(C)(Br)C(Br)CBr (stereo not drawn),31.2
3,CCOC(=O)C(/C=N\C(=S)Nc1c(CC)cccc1C(C)(C)C)=C(/O)c1ccccc1,> 100
4,O=CN(CCN1CCCC1)C1CCc2cc(Cl)c(Cl)cc2C1 (stereo not drawn),19.9
5,OC1c2ccccc2CCC1C(O)(C(F)(F)F)C(F)(F)F (stereo not drawn),> 100
